The test concerns A549 NSCLC cells. The test is described as follows: Cellular cytotoxicity assay (Alamar Blue), A549. In kind it is cell-based. The conditions noted are these: Homo sapiens, 72 h, upper end given as ≧100, read-out: IC50 (μM), cytotoxicity towards A549 NSCLC cells. The gist of the method: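 Cells were dosed 24 h after seeding with semi-log compound dilutions in quadruplicate, then incubated 72 h at 37 °C, 5% CO2. Viability read by Resazurin reduction (4 h, fluorescence 544/590 nm) relative to untreated 0.5% DMSO controls; IC50 by non-linear regression.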

These results are taken from US8440830B2, “Tetrahydro-fused pyridines as histone deacetylase inhibitors” (4SC AG, priority 2007, dated 2013).

As usually defined, the IC50 is the concentration that inhibits the measured activity by half.

Turning to `Nc1ccccc1NC(=O)c1nc2c(s1)CN(S(=O)(=O)c1ccc3ccccc3c1)CC2` [Example 156, N-(2-aminophenyl)-5-(2-naphthylsulfonyl)-4,5,6,7-tetrahydro[1,3]thiazolo[5,4-c]pyridine-2-carboxamide], the IC50 was at least 0.2 µM.

As to `Nc1ccccc1NC(=O)c1nc2c(s1)CN(S(=O)(=O)c1cccs1)CC2` [Example 157, N-(2-aminophenyl)-5-(2-thienylsulfonyl)-4,5,6,7-tetrahydro[1,3]thiazolo[5,4-c]pyridine-2-carboxamide], the IC50 was at least 0.2 µM. The figure for `COC(=O)c1sccc1S(=O)(=O)N1CCc2nc(C(=O)Nc3ccccc3N)sc2C1` [Example 158, Methyl 3-({2-[(2-aminophenyl)carbamoyl]-6,7-dihydro[1,3]thiazolo[5,4-c]pyridin-5(4H)-yl}sulfonyl)thiophene-2-carboxylate] is at least 0.2 µM. For the compound `CC(=O)Nc1nc(C)c(S(=O)(=O)N2CCc3nc(C(=O)Nc4ccccc4N)sc3C2)s1` [Example 159, 5-[(2-acetamido-4-methyl-1,3-thiazol-5-yl)sulfonyl]-N-(2-aminophenyl)-4,5,6,7-tetrahydro[1,3]thiazolo[5,4-c]pyridine-2-carboxamide], the IC50 was at least 0.2 µM. The figure for `Nc1ccccc1NC(=O)c1nc2c(s1)CN(S(=O)(=O)c1ccc(C(F)(F)F)cc1)CC2` [Example 161, N-(2-aminophenyl)-5-{[4-(trifluoromethyl)phenyl}sulfonyl]-4,5,6,7-tetrahydro[1,3]thiazolo[5,4-c]pyridine-2-carboxamide] is at least 0.2 µM; for `Nc1ccccc1NC(=O)c1nc2c(s1)CN(S(=O)(=O)c1cccc(C(F)(F)F)c1)CC2` [Example 162, N-(2-aminophenyl)-5-{[3-(trifluoromethyl)phenyl]sulfonyl}-4,5,6,7-tetrahydro[1,3]thiazolo[5,4-c]pyridine-2-carboxamide] it is at least 0.2 µM. The value for `Nc1ccccc1NC(=O)c1nc2c(s1)CN(S(=O)(=O)c1cccc(F)c1)CC2` [Example 163, N-(2-aminophenyl)-5-[(3-fluorophenyl)sulfonyl]-4,5,6,7-tetrahydro[1,3]-thiazolo[5,4-c]pyridine-2-carboxamide] was at least 0.2 µM; that for `CC(C)S(=O)(=O)N1CCc2nc(C(=O)Nc3ccccc3N)sc2C1` [Example 164, N-(2-aminophenyl)-5-(isopropylsulfonyl)-4,5,6,7-tetrahydro[1,3]thiazolo[5,4-c]pyridine-2-carboxamide] was at least 0.2 µM. With `Nc1ccccc1NC(=O)c1nc2c(s1)CN(S(=O)(=O)c1cccc(OC(F)F)c1)CC2` [Example 165, N-(2-aminophenyl)-5-{[3-(difluoromethoxy)phenyl]sulfonyl}-4,5,6,7-tetrahydro[1,3]thiazolo[5,4-c]pyridine-2-carboxamide], the IC50 was at least 0.2 µM. The figure for `Nc1ccccc1NC(=O)c1nc2c(s1)CN(S(=O)(=O)c1ccc(OC(F)F)cc1)CC2` [Example 166, N-(2-aminophenyl)-5-{[4-(difluoromethoxy)phenyl]sulfonyl}-4,5,6,7-tetrahydro[1,3]thiazolo[5,4-c]pyridine-2-carboxamide] is at least 0.2 µM; for `Nc1ccccc1NC(=O)c1nc2c(s1)CN(S(=O)(=O)c1cccc(OC(F)(F)F)c1)CC2` [Example 167, N-(2-aminophenyl)-5-{[3-(trifluoromethoxy)phenyl]sulfonyl}-4,5,6,7-tetrahydro[1,3]thiazolo[5,4-c]pyridine-2-carboxamide] it is at least 0.2 µM; for `Nc1ccccc1NC(=O)c1nc2c(s1)CN(S(=O)(=O)c1ccc(OC(F)(F)F)cc1)CC2` [Example 168, N-(2-aminophenyl)-5-{[4-(trifluoromethoxy)phenyl]sulfonyl}-4,5,6,7-tetrahydro[1,3]thiazolo[5,4-c]pyridine-2-carboxamide] it is at least 0.2 µM. On to `COc1ccc(N)c(NC(=O)c2nc3c(s2)CN(S(=O)(=O)c2ccc(C)cc2)CC3)c1` [Example 169, N-(2-amino-5-methoxyphenyl)-5-[(4-methylphenyl)sulfonyl]-4,5,6,7-tetrahydro[1,3]thiazolo[5,4-c]pyridine-2-carboxamide], for which the IC50 was at least 0.2 µM.

Regarding `Cc1ccc(S(=O)(=O)N2CCc3nc(C(=O)Nc4cc(C(C)C)ccc4N)sc3C2)cc1` [Example 170, N-(2-amino-5-isopropylphenyl)-5-[(4-methylphenyl)sulfonyl]-4,5,6,7-tetrahydro[1,3]thiazolo[5,4-c]pyridine-2-carboxamide], the IC50 is at least 0.2 µM. The figure for `COc1ccc(S(=O)(=O)N2CCc3nc(C(=O)Nc4cc(OC)ccc4N)sc3C2)cc1` [Example 171, N-(2-amino-5-methoxyphenyl)-5-[(4-methoxyphenyl)sulfonyl]-4,5,6,7-tetrahydro[1,3]thiazolo[5,4-c]pyridine-2-carboxamide] is at least 0.2 µM. The figure for `Nc1ccccc1NC(=O)c1nc2c(s1)CN(C(=O)COc1ccccc1)CC2` [Example 172, N-(2-aminophenyl)-5-(phenoxyacetyl)-4,5,6,7-tetrahydro[1,3]thiazolo[5,4-c]pyridine-2-carboxamide] is at least 0.2 µM; for `Nc1ccccc1NC(=O)c1nc2c(s1)CN(C(=O)COc1ccc3ccccc3c1)CC2` [Example 175, N-(2-aminophenyl)-5-[(2-naphthyloxy)acetyl]-4,5,6,7-tetrahydro[1,3]thiazolo[5,4-c]pyridine-2-carboxamide] it is at least 0.2 µM; for `COCC(=O)N1CCc2nc(C(=O)Nc3ccccc3N)sc2C1` [Example 177, N-(2-aminophenyl)-5-(methoxyacetyl)-4,5,6,7-tetrahydro[1,3]thiazolo[5,4-c]pyridine-2-carboxamide] it is at least 0.2 µM.

Turning to `COc1ccc(OCC(=O)N2CCc3nc(C(=O)Nc4cc(C(C)C)ccc4N)sc3C2)cc1` [Example 178, N-(2-amino-5-isopropylphenyl)-5-[(4-methoxyphenoxy)acetyl]-4,5,6,7-tetrahydro[1,3]thiazolo[5,4-c]pyridine-2-carboxamide], the IC50 was at least 0.2 µM.

Consider `COc1cccc(OCC(=O)N2CCc3nc(C(=O)Nc4ccccc4N)sc3C2)c1` [Example 179, N-(2-aminophenyl)-5-[(3-methoxyphenoxy)acetyl]-4,5,6,7-tetrahydro[1,3]-thiazolo[5,4-c]pyridine-2-carboxamide], for which the IC50 is at least 0.2 µM. The value for `Nc1ccccc1NC(=O)c1nc2c(s1)CN(C(=O)Oc1ccc(-c3ccccc3)cc1)CC2` [Example 181, Biphenyl-4-yl 2-[(2-aminophenyl)carbamoyl]-6,7-dihydro[1,3]thiazolo[5,4-c]pyridine-5(4H)-carboxylate] was at least 0.2 µM; that for `CCCOC(=O)c1ccc(OC(=O)N2CCc3nc(C(=O)Nc4ccccc4N)sc3C2)cc1` [Example 184, 4-(propoxycarbonyl)phenyl 2-[(2-aminophenyl)carbamoyl]-6,7-dihydro[1,3]thiazolo[5,4-c]pyridine-5(4H)-carboxylate] was at least 0.2 µM; that for `Nc1ccccc1NC(=O)c1nc2c(s1)CN(C(=O)Oc1ccc3ccccc3c1)CC2` [Example 185, 2-naphthyl 2-[(2-aminophenyl)carbamoyl]-6,7-dihydro[1,3]thiazolo[5,4-c]-pyridine-5(4H)-carboxylate] was at least 0.2 µM.

As to `CCCCOC(=O)N1CCc2nc(C(=O)Nc3ccccc3N)sc2C1` [Example 187, Butyl 2-[(2-aminophenyl)carbamoyl]-6,7-dihydro[1,3]thiazolo[5,4-c]pyridine-5(4H)-carboxylate], the half-maximal inhibitory concentration (IC50) is at least 0.2 µM. The value for `Nc1ccccc1NC(=O)c1nc2c(s1)CN(C(=O)OCc1ccccc1)CC2` [Example 188, Benzyl 2-[(2-aminophenyl)carbamoyl]-6,7-dihydro[1,3]thiazolo[5,4-c]pyridine-5(4H)-carboxylate] was at least 0.2 µM; that for `Nc1ccccc1NC(=O)c1nc2c(s1)CN(c1ccc(C(F)(F)F)cn1)CC2` [Example 195, N-(2-aminophenyl)-5-[5-(trifluoromethyl)pyridin-2-yl]-4,5,6,7-tetrahydro[1,3]thiazolo[5,4-c]pyridine-2-carboxamide] was at least 0.2 µM. The value for `Nc1ccccc1NC(=O)c1nc2c(s1)CN(c1ccc(NC(=O)NCc3ccccc3)cc1)CC2` [Example 198, N-(2-aminophenyl)-5-{4-[(benzylcarbamoyl)amino]phenyl}-4,5,6,7-tetrahydro[1,3]thiazolo[5,4-c]pyridine-2-carboxamide] was at least 0.2 µM; that for `Cc1ccc(S(=O)(=O)Nc2ccc(N3CCc4nc(C(=O)Nc5ccccc5N)sc4C3)cc2)cc1` [Example 199, N-(2-aminophenyl)-5-(4-{[(4-methylphenyl)sulfonyl]amino}phenyl)-4,5,6,7-tetrahydro[1,3]thiazolo[5,4-c]pyridine-2-carboxamide] was at least 0.2 µM.
